The source of these data is patent publication US20260240940A1, “REGULATING DISEASE OR DISORDER CHARACTERIZED BY ESOPHAGEAL EPITHELIAL PROLIFERATION THROUGH SECRETED FRIZZLED-RELATED PROTEIN 1 (SFRP1)” (The Regents of the University of Michigan, priority 2023, published 2026).

Assay [1] concerns EPC2-ALI cells. Kind of assay: Quantification of Ki67-positive EPC2-ALI cells. It is filed as cell-based, human. The following applies: for Ki67+ EPC2-ALI cells under IL-13-stimulation: compared to IL-13 alone; for Ki67+ EPC2-ALI cells, treatment alone: without IL-13, compared to steady-state (Vehicle). On the procedure:
(§1) EPC2-ALI culture—hTERT immortalized human esophageal epithelial keratinocytes (hTERT-EPC2) were cultured under air-liquid-interface conditions as described 9, 41. In brief, EPC2-hTERT cells were seeded onto permeable (0.4 μm) transwell support (Corning Incorporated, Corning, NY, USA) and grown to confluence while fully submerged in low-calcium ([Ca2+]=0.09 mM) keratinocyte serum-free media (K-SFM) (Life Technologies; Carlsbad, CA). Epithelial differentiation was induced by culturing submerged cell monolayers in high-calcium K-SFM ([Ca2+]=1.8 mM) for 4 days (day 3 to 7). Cells were then exposed for 5 days (day 7 to 12) at ALI by removing cell media from the top chamber, to induce stratification.
Quantification of Ki67-positive EPC2-ALI cells—EPC2-ALI cells were cultured in the presence or absence of their respective stimulations for 48 hours. For immunofluorescence (IF) staining, formalin- or paraformaldehyde-fixed, paraffin-embedded transwell sections were sectioned, mounted on slides, and deparaffinized by using standard histologic procedures. Slides were then permeabilized in Tris-EDTA (1 mmol/L, pH 9.0) with 0.1% Tween-20, and antigen exposure was performed at 125° C. for 30 seconds in a decloaking chamber by using a pressure cooker. Slides were then blocked by 10% normal donkey serum for 1 hour, followed by overnight incubation of primary antibodies diluted in 10% normal donkey serum at a final concentration of 1 μg/mL: anti-Ki67 (1:1000; clone: SolA15; Invitrogen), slides were then washed and incubated with secondary antibody at RT for 1 hour. Slides were mounted with 4′-6-diamidino-2-phenylindole dihydrochloride Fluoromount-G (SouthernBiotech, Birmingham, Ala) mounting solution. Fluorescent imaging was performed with the Zeiss Apotome fluorescent microscope (Carl Zeiss Meditec, Dublin, Calif) using Nikon Elements software. Ki67+ cells were quantified as the number of Ki67+-labeled cells per total linear length of filter-attached EPC2-ALI cells using FIJI ImageJ. Three filters per condition from 3 individual experiments were quantitated.

Assay [2] relates to EPC2-ALI cells. Kind of assay: qPCR mRNA expression of EoE proliferation and inflammatory genes in EPC2-ALI. It is filed as cell-based, human. The following applies: in the presence of SD-36. On the procedure:
as §1
Quantitative PCR—RNA was extracted from EPC2-ALI cells by using the Quick-RNA Microprep Kit (Zymo Research Corporation) according to the manufacturer's protocol. Purified RNA (500 ng) was DNase treated and reverse transcribed to cDNA by using Superscript II RNase H Reverse Transcriptase (Thermo Fisher Scientific, Rockford, Ill), according to the manufacturer's instructions. cDNA for ANO1, CAPN14, CCL26, TP63, SFRP1, STAT3 and hypoxanthine phosphoribosyltransferase (HPRT) was quantified by using real-time PCR with the IQ SYBR Green Supermix (Bio-Rad Laboratories, Hercules, Calif) with the CFX96 Touch Real-Time PCR Detection System (Bio-Rad Laboratories). Quantitative PCR (qPCR) analyses were performed by using Bio-Rad CFX Manager Software (version 3.1; Bio-Rad Laboratories), and the results were normalized with HPRT amplified from the same cDNA mix and expressed as fold induction (2^-(ΔΔCT). Primers used for amplification were: […]

In the next assay the target is T1, STAT3 (Homo sapiens, UniProt P40763).
T1 construct: endogenous in cells; host or cells: hTERT-EPC2 human esophageal epithelial keratinocytes at air-liquid interface (EPC2-ALI)
T1 sequence (P40763 whole entry): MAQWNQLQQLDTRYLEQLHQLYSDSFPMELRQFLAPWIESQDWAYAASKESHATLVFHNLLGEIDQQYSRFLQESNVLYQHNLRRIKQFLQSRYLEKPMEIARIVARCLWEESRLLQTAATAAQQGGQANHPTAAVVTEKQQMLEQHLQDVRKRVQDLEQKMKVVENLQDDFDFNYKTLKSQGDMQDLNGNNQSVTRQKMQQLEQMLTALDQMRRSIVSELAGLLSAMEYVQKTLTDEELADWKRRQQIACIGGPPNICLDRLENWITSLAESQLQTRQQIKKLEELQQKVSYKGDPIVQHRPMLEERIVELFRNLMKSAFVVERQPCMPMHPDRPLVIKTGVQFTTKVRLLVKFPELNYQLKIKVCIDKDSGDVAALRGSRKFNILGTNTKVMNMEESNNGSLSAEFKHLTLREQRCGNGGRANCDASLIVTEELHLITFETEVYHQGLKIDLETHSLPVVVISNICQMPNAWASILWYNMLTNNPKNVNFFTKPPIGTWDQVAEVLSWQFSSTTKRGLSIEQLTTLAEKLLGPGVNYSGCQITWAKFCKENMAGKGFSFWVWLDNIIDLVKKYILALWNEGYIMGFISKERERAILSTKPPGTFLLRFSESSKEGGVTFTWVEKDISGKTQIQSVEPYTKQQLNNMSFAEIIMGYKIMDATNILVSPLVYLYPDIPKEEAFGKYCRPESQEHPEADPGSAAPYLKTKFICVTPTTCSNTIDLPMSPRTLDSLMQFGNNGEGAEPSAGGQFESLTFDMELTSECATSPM
Put plainly: Western blot of EPC2-ALI for total and phosphorylated STAT3. Format: cell-based. The note with it: SD-36 10 uM. On the procedure: as §1
Western blot—EPC2 ALI cells and primary esophageal cells were lysed following stimulation, using a protein extraction reagent (10% Glycerol, 20 mM Tris HCl pH7, 137 mM NaCl, 2 mM EDTA, 1% NP-40 in H2O) with Halt™ protease inhibitor cocktail (Thermo Fisher Scientific Incorporated; Rockford, IL, USA) and PhosSTOP phosphatase inhibitor cocktail tablet (Roche Diagnostics; Mannheim, Germany). […] of protein extract were separated on a 4%-12% Bis-Tris gel and transferred to a nitrocellulose membrane (Life Technologies; Carlsbad, CA). […]

In another assay the target is T2, IL4Rα chain (Homo sapiens, UniProt P24394).
T2 construct: adults with active EoE who received weekly subcutaneous injections of dupilumab; host or cells: human patients (in vivo)
The following applies: adults with active EoE, weekly subcutaneous injections; cited from earlier work.

A further assay addresses T3, IL-13 (Homo sapiens, UniProt P35225).
T3 construct: Treatment of adult EoE patients with RPC4046, a recombinant humanized monoclonal antibody against IL-13 improves histologic and endoscopic outcomes; host or cells: human patients (in vivo)
The note with it: cited from earlier work.

T3 sequence (P35225 25-146): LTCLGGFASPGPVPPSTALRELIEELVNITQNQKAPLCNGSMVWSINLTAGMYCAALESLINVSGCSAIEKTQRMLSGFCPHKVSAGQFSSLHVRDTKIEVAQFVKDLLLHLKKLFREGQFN

On to `NC(=O)CC[C@H](NC(=O)[C@@H]1CC[C@@H]2CCN(C(=O)CCCCCC#Cc3cccc4c3CN(C3CCC(=O)NC3=O)C4=O)C[C@H](NC(=O)c3cc4cc(C(F)(F)P(=O)(O)O)ccc4[nH]3)C(=O)N21)C(=O)NC(c1ccccc1)c1ccccc1` (stereo partly drawn) [SD-36], for which the “IL-13-induced increase in EPC2-ALI Ki-67+ cells” value with EPC2-ALI cells [1] (SD-36 10 uM, IL-13 100 ng/mL, 48 hours) is given as “attenuated”. Further, in the assay on EPC2-ALI cells [2], the “IL-13-induced mRNA expression of ANO1” value is reported as “abolished”; the “IL-13-induced mRNA expression of TP63” value is listed as “abolished”; the “IL-13 induction of canonical EoE inflammatory genes (CCL26, SLC9A3, CAPN14) mRNA” value was “not significantly inhibited”. In addition, the “IL-13 induced phosphorylation of STAT3 Y705 and Y727 residues” value at STAT3 (IL-13 100 ng/mL) is on record as “total loss”. Besides, at STAT3 (at steady state and following IL-13-stimulation (100 ng/mL)), the “degradation of STAT3 (total STAT3 protein)” value is “led to degradation of STAT3”.
In the case of `O=S(=O)(NC1CCNCC1)c1cc(S(=O)(=O)c2ccccc2)ccc1C(F)(F)F` [SFRP1inh], in the assay on EPC2-ALI cells [1], the “Ki67+ EPC2-ALI cells under IL-13-stimulation” value is “increase” and the “Ki67+ EPC2-ALI cells, treatment alone” value is reported as “increase”.
As for “dupilumab: fully human IgG4 monoclonal antibody that binds the IL4Rα chain and blocks both IL-4 and IL-13 signaling”, in the assay with IL4Rα chain, the esophageal distensibility result is “increased”; the “histologic and endoscopic severity scores” value is “decreased”; the “peak esophageal eosinophil count” value was “reduced”.

B1: rSFRP1: recombinant secreted frizzled-related protein 1, used as pharmacologic agonist (protein, UniProt Q8N474 32-314, looked up)
Secreted frizzled-related …: SEYDYVSFQSDIGPYQSGRFYTKPPQCVDIPADLRLCHNVGYKKMVLPNLLEHETMAEVKQQASSWVPLLNKNCHAGTQVFLCSLFAPVCLDRPIYPCRWLCEAVRDSCEPVMQFFGFYWPEMLKCDKFPEGDVCIAMTPPNATEASKPQGTTVCPPCDNELKSEAIIEHLCASEFALRMKIKEVKKENGDKKIVPKKKKPLKLGPIKKKDLKKLVLYLKNGADCPCHQLDNLSHHFLIMGRKVKSQYLLTAIHKWDKKNKEFKNFMKKMKNHECPTFQSVFK
For B1, in the assay with EPC2-ALI cells [1], the “Ki67+ EPC2-ALI cells under IL-13-stimulation” value was “decrease” and the “Ki67+ EPC2-ALI cells, treatment alone” value is “sufficient to inhibit esophageal epithelial proliferation”.

B2: RPC4046: recombinant humanized monoclonal antibody against IL-13 (antibody, chains of the INN, looked up, V domains shown)
VH: EVTLRESGPGLVKPTQTLTLTCTLYGFSLSTSDMGVDWIRQPPGKGLEWLAHIWWDDVKRYNPALKSRLTISKDTSKNQVVLKLTSVDPVDTATYYCARTVSSGYIYYAMDYWGQGTLVTVSS
VL: DIQMTQSPSSLSASVGDRVTISCRASQDIRNYLNWYQQKPGKAPKLLIFYTSKLHSGVPSRFSGSGSGTDYTLTISSLQPEDIATYYCQQGNTLPLTFGGGTKVEIK
B2: the “endoscopic, histologic and clinical improvement in long-term extension” value with IL-13 (52-week open-label LTE study, 360 mg/week) is “sustained endoscopic, histologic and clinical improvement”. Further, the “histologic and endoscopic outcomes” value with IL-13 (adult EoE patients) is given as “improves”.
